Data on 2 compounds can be found in PMC12799421, “Inhibition of constitutive activity of the atypical chemokine receptor 3 by the small-molecule inverse agonist VUF16840” (Molecular Pharmacology, 2025).

Common to all, as to format: cell-based
Test [1] concerns the target T1, ACKR3 (Homo sapiens, UniProt P25106).
T1 construct: expressed in transfected cells; host or cells: HEK293T
Briefly: NanoBiT-complementation β-arrestin2 recruitment to hACKR3 in HEK293T cells. The following applies: for EC50: * VUF16840 as inverse agonist, 15 minutes incubation, read-out: β-arrestin2 NanoBit pEC50 (converted). The procedure: (§1) For 1·10^6 HEK293T cells, a transfection mix consisting of 2 μg plasmid DNA, 12 μg linear PEI in a total volume of 200 μL 150 mM NaCl was made and thoroughly vortexed. The transfection mix was incubated for 15 minutes and consequently added to a cell suspension with a final concentration of 3·10^5 cells/mL. For functional studies this cell suspension was immediately transferred to a poly-L-lysine-coated white 96-well plate, with 3·10^4 cells per well. […] For BRET-based membrane localization experiments, the 2 μg plasmid DNA consisted of ACKR3-NL (0.05 μg), mVenus-CAAX (0.25 μg), and pcDEF3 vector DNA without insert (1.7 μg).
Two days after transfection (vide supra), medium was aspirated and cells were reconstituted in HBSS with 0.05% BSA. […] After treating the cell with ligand furimazine was added (310 times diluted from stock concentration). Cells were incubating at 37 °C for another 3 minutes before detection of bioluminescent intensities.
To determine the insurmountable antagonism of VUF16840, medium of transfected cells was aspirated and cells were reconstituted in HBSS with 20 mM HEPES and 0.1% BSA. Cells were incubated with VUF16840 or buffer for 60 minutes after which furimazine was added and cells were incubated for another 5 minutes, all at 37 °C.
Bioluminescence was measured using the PHERAstar-FSX and is a measure for the relative proximity of LgBiT- and SmBiT-tagged proteins and thus the occurrence of investigated protein–protein interaction.[38]
(§2) Mean pIC50 values were determined by averaging fitted values from individual experiments. Graphs depict the pooled data of all experiments. Similarly, sigmoidal, ligand-induced concentration-dependent activation or inhibition of the proximity between ACKR3 and the protein of interest was analyzed using GraphPad Prism 8, by fitting a 3-parameter concentration-response model to the data, to determine pEC50/pIC50 values. Mean pEC50 values and pIC50 values were determined by averaging fitted values from individual experiments. Graphs depict the pooled data of all experiments, for which values are normalized, per experiment, to the fold difference compared with basal signal.
On the technique in general: Activated receptors often draw arrestin, which recruitment assays turn into a signal.

Test [2] concerns the target T1, ACKR3. Briefly: BRET β-arrestin2 recruitment to hACKR3 in HEK293T cells. Conditions: for EC50: * VUF16840 as inverse agonist, mean ± SD (N), read-out: β-arrestin2 BRET pEC50 (converted); for IC50: read-out: β-arrestin2 BRET, Inhibition by VUF16840 (pIC50) (converted). The procedure: (§3) For bioluminescence resonance energy transfer (BRET) experiments, several BRET acceptor constructs were used that consist of the pcDEF3 vector with either GRK2 (NCBI: NM_174710.2), β-arrestin1 (NCBI: NM_174243.3), or β-arrestin2 (NCBI: XM_005220181.4) fused at the C-terminus with a SpeI/NotI linker to mVenus (NCBI: KP666136.1), as previously described.[34]
as §1, §2
A general note: In BRET a luciferase serves as donor, and the signal depends on an acceptor being close.

The target of test [3] is T1, ACKR3. Briefly: BRET β-arrestin1 recruitment to ACKR3 in HEK293T cells. The following applies: for EC50: * VUF16840 as inverse agonist, read-out: β-arrestin1 BRET pEC50 (converted); for IC50: read-out: β-arrestin1 BRET, Inhibition by VUF16840 (pIC50) (converted). On the procedure: as §3, §1, §2
HEK293T cells were stimulated with increasing concentrations of VUF15485 or VUF16840 only (A–D), or increasing concentrations of VUF16840 in the presence of 100 nM VUF15485 (E–H). The resulting proximity between ACKR3 and β-arrestin1 (A, E), GRK2 (B, F), or Rab5a (C, G) was determined by bioluminescence resonance energy transfer. Furthermore, an interaction between clathrin A and β-arrestin2 was measured by NLuc complementation, as was determined by quantifying the relative light units (D, H). Depicted data is normalized as fold-basal and represents the mean ± SD of N experiments with triplicate measurements per experiment. N is specified in Supplemental Table 1.

The target of test [4] is T1, ACKR3. Briefly: BRET GRK2 recruitment to ACKR3 in HEK293T cells. Conditions: for EC50: * VUF16840 as inverse agonist, read-out: GRK2 BRET pEC50 (converted). The procedure: as §3, §1
The sigmoidal concentration-dependent displacement of binding of the probes [^3H]VUF15485 and CXCL12-A647 by unlabeled ligands were analyzed using GraphPad Prism 8, by fitting a one-site binding model to the data, to determine the pIC50. Mean pIC50 values were determined by averaging fitted values from individual experiments. Graphs depict the pooled data of all experiments. Similarly, sigmoidal, ligand-induced concentration-dependent activation or inhibition of the proximity between ACKR3 and the protein of interest was analyzed using GraphPad Prism 8, by fitting a 3-parameter concentration-response model to the data, to determine pEC50/pIC50 values. Mean pEC50 values and pIC50 values were determined by averaging fitted values from individual experiments. […]
Fig. 5 Inhibition of both constitutive as well as agonist-induced ACKR3 activity by VUF16840. […] The resulting proximity between ACKR3 and β-arrestin1 (A, E), GRK2 (B, F), or Rab5a (C, G) was determined by bioluminescence resonance energy transfer. […]

Molecules are shown by their SMILES. pIC50: −log10 of the molar value.

T1 sequence (P25106 whole entry): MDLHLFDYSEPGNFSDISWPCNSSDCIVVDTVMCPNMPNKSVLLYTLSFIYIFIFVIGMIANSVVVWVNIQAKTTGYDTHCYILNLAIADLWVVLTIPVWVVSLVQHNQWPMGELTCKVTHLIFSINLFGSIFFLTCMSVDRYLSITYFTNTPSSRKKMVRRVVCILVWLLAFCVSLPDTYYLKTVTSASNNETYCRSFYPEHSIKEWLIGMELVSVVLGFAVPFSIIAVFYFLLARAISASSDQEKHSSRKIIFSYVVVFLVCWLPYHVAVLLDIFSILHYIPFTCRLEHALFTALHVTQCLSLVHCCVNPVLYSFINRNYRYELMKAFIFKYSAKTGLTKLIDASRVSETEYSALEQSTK

With `COc1cc(C(=O)N(CCC2CCCN2C)CC(C)=Cc2ccccc2F)cc(OC)c1OC` (stereo not shown) [VUF15485, reference compound], the EC50 in test [1] is 15.8 nM; in test [2], 12.6 nM; in test [3], 39.8 nM; in test [4], 25.1 nM.
Broadly, the pIC50 is −log10 of the IC50, conventionally taken in molar units. As for `COc1ccccc1CCNC(=O)C1CN(C2CCCCC2)CCC1NC(=O)c1cc(-c2ccc(F)cc2F)on1` (stereo not shown) [VUF16840], the “fashion of inhibition of CXCL12- and CXCL11-mediated β-arrestin2 recruitment (Schild analysis)” value in test [1] (60 minutes pretreatment with VUF16840) is listed as “nonsurmountable”. Besides, the EC50 is 15.8 nM in test [1], 10 nM in test [2], 5.01 nM in test [3] and 3.16 nM in test [4]. The pIC50 in test [1] (inverse agonist, after 30 minutes of incubation, read-out: IC50, inhibition of constitutive β-arrestin2 recruitment to hACKR3 (NanoBiT)) was 8.20; in test [2] (constitutive, no agonist, read-out: IC50, reduction of β-arrestin2 recruitment to hACKR3 (BRET)), 8.00. For the same compound, the IC50 in test [1] (versus 100 nM VUF15485, read-out: β-arrestin2 NanoBit, Inhibition by VUF16840 (pIC50) (converted)) is 20 nM; in test [2] (versus 100 nM CXCL11), 2 nM; in test [2] (versus 100 nM CXCL12), 2.51 nM; in test [2] (versus 100 nM VUF15485), 10 nM; in test [3] (versus 100 nM CXCL11), 2.51 nM; in test [3] (versus 100 nM CXCL12), 5.01 nM. Further, the IC50 was 2 nM in test [3] (versus 100 nM VUF15485) and 3.98 nM in test [4] (versus 100 nM VUF15485, read-out: GRK2 BRET, Inhibition by VUF16840 (pIC50) (converted)).
